Active and inactive are the calls of the source. The calls are words filed in the database; no cut-off is given here.
How the values were obtained:
[1] = system: SH-SY5Y; assay: Cytoprotection against amyloid beta (1 to 42) peptide induced cell death in human SH-SY5Y cells assessed as increase in clonogenic survival after 24 hrs by Giemsa staining-based inverted microscopic analysis; assay type: functional; details: read-out: MEC
[2] = system: SH-SY5Y; assay: Cytotoxicity against human SH-SY5Y cells assessed as reduction in cell viability at 0.056 uM after 24 hrs by XTT assay; assay type: cell-based
[3] = system: SH-SY5Y; assay: Induction of neuronal differentiation in human SH-SY5Y cells assessed as extensive neurites formation at 0.014 uM followed by culture medium replacement for every three days for 10 days by inverted-phase microscopic analysis; assay type: functional, cell-based
[4] = target: Cholinesterase (Homo sapiens, UniProt P06276); assay: Inhibition of human serum BuChE using butyrylthiocholine iodide as substrate preincubated for 5 mins followed by substrate addition measured over 5 mins by UV-Vis spectrophotometric analysis
[5] = target: T1, Acetylcholinesterase (Homo sapiens, UniProt P22303); assay: Noncompetitive inhibition of human AChE using acetylthiocholine iodide as substrate preincubated for 5 mins followed by substrate addition measured over 5 mins by Lineweaver-Burk plot analysis
[6] = target: Acetylcholinesterase (Electrophorus electricus) (UniProt O42275); assay: Binding affinity to electric eel AChE in presence fixed dose of donepezil by STD NMR spectroscopy method
[7] = system: HepG2; assay: Cytotoxicity against human HepG2 cells assessed as reduction in cell viability at 0.0035 to 0.224 uM after 24 hrs by XTT assay; assay type: cell-based; details: hepg2, 24 h
[8] = system: SH-SY5Y; assay: Induction of neuronal differentiation in human SH-SY5Y cells assessed as neurite bearing cells at 0.014 uM followed by culture medium replacement for every three days for 10 days by inverted-phase microscopic analysis relative to control; assay type: functional
[9] = target: Acetylcholinesterase (Electrophorus electricus) (UniProt O42275); assay: Binding affinity to electric eel AChE in presence of 80 to 1216 uM donepezil by STD NMR spectroscopy method
[10] = system: SH-SY5Y; assay: Induction of neuronal differentiation in human SH-SY5Y cells assessed as decrease in cell proliferation at 0.014 uM followed by culture medium replacement for every three days for 10 days by inverted-phase microscopic analysis; assay type: functional, cell-based
[11] = target: T1, Acetylcholinesterase; assay: Inhibition of human AChE using acetylthiocholine iodide as substrate preincubated for 5 mins followed by substrate addition measured over 5 mins by UV-Vis spectrophotometric analysis
[12] = target: T1, Acetylcholinesterase; assay: Mixed-type inhibition of human AChE using acetylthiocholine iodide as substrate preincubated for 5 mins followed by substrate addition measured over 5 mins by Lineweaver-Burk plot analysis
[13] = system: SH-SY5Y; assay: Induction of neuronal differentiation in human SH-SY5Y cells assessed as extensive neurites formation at 0.13 uM followed by culture medium replacement for every three days for 10 days by inverted-phase microscopic analysis; assay type: functional, cell-based
[14] = system: SH-SY5Y; assay: Induction of neuronal differentiation in human SH-SY5Y cells assessed as neurite bearing cells at 0.13 uM followed by culture medium replacement for every three days for 10 days by inverted-phase microscopic analysis relative to control; assay type: functional
[15] = system: SH-SY5Y; assay: Cytotoxicity against human SH-SY5Y cells assessed as reduction in cell viability at 2.84 uM after 24 hrs by XTT assay; assay type: cell-based
[16] = system: HepG2; assay: Cytotoxicity against human HepG2 cells assessed as reduction in cell viability at 2.84 to 5.68 uM after 24 hrs by XTT assay; assay type: cell-based; details: hepg2, 24 h
[17] = system: SH-SY5Y; assay: Induction of neuronal differentiation in human SH-SY5Y cells assessed as decrease in cell proliferation at 0.13 uM followed by culture medium replacement for every three days for 10 days by inverted-phase microscopic analysis; assay type: functional, cell-based

T1 sequence (P22303 whole entry): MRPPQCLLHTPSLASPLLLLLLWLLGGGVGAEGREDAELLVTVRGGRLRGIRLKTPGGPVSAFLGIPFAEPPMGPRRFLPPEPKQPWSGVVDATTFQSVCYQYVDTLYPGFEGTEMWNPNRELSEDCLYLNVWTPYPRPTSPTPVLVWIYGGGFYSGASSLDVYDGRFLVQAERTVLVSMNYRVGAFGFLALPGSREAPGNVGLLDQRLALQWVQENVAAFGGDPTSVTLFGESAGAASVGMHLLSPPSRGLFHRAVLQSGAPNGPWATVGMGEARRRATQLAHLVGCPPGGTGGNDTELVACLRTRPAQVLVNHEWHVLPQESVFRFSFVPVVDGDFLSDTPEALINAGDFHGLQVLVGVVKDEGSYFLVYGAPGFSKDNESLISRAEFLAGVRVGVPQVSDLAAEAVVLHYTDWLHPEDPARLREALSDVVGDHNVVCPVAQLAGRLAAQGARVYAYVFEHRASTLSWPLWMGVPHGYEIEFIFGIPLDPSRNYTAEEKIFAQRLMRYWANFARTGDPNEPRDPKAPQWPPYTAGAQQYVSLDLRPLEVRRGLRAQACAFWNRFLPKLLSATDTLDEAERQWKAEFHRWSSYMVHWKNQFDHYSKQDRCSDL
Sequence of Acetylcholinesterase (Electrophorus electricus) (O42275 24-633 limits assumed): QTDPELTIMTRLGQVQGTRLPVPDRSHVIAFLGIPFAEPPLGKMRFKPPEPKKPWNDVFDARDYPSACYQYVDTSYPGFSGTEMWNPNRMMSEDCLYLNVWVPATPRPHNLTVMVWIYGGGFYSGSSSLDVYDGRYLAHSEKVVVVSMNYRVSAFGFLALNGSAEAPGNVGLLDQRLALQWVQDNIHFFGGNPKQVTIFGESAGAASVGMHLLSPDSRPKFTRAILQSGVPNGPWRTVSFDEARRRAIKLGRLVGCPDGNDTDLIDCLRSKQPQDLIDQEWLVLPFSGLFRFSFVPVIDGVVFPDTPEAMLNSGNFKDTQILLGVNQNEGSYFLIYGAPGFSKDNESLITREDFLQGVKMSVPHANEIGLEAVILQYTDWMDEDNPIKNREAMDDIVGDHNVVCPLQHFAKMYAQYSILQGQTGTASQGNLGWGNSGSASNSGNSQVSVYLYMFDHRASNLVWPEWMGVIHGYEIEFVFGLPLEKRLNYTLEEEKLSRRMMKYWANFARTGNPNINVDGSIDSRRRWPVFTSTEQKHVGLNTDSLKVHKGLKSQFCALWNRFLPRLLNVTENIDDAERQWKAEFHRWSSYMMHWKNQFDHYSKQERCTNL
Sequence of Cholinesterase (P06276 whole entry): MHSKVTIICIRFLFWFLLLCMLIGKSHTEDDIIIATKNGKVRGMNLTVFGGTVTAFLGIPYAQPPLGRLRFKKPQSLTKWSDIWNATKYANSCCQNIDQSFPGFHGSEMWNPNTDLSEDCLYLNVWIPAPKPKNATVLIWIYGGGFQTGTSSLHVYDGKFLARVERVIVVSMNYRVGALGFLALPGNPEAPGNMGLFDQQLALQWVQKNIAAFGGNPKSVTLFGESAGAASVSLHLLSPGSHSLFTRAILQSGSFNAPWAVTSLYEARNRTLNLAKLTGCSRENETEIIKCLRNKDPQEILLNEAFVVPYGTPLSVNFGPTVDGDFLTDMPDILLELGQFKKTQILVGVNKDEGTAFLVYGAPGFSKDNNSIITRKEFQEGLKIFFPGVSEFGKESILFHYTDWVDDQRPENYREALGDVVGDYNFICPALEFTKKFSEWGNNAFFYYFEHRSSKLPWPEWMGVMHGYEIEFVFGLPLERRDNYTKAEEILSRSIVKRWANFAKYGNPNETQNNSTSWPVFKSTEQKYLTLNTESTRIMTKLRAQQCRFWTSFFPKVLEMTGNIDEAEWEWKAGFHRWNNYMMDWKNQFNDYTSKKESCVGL

COc1cc2c(cc1OC)C(=O)/C(=C/C1CCN(Cc3cc(N)c4ccccc4n3)CC1)C2
minimal effective concentration [1]: 0.0035 µM | Activity [2]: Toxic | Activity [3]: Active | IC50 [4]: 3.69 µM | inhibition [5]: Active | Activity [6]: Active | Activity [7]: Non-Toxic | Activity [8]: 55% | Activity [9]: Active | Activity [10]: Active | IC50 [11]: 0.014 µM

COc1cc2c(cc1OC)C(=O)C(CC1CCN(Cc3cc(Cl)c4ccccc4n3)CC1)C2 (stereo not drawn)
IC50 [4]: 5.99 µM | IC50 [11]: > 10 µM

[N-]=[N+]=Nc1cc(CN2CCC(C=O)CC2)nc2ccccc12
IC50 [4]: > 10 µM | IC50 [11]: > 10 µM

COc1cc2c(cc1OC)C(=O)/C(=C/C1CCN(Cc3cc(Cl)c4ccccc4n3)CC1)C2
IC50 [4]: > 10 µM | IC50 [11]: > 10 µM

COc1cc2c(cc1OC)C(=O)/C(=C/C1CCN(Cc3cc(N=[N+]=[N-])c4ccccc4n3)CC1)C2
IC50 [4]: > 10 µM | inhibition [12]: Active | Activity [9]: inactive | IC50 [11]: 4.88 µM

OCC1CCN(Cc2cc(Cl)c3ccccc3n2)CC1
IC50 [4]: > 10 µM | IC50 [11]: > 10 µM

O=CC1CCN(Cc2cc(Cl)c3ccccc3n2)CC1
IC50 [4]: > 10 µM | IC50 [11]: > 10 µM

COc1cc2c(cc1OC)C(=O)C(CC1CCN(Cc3cc(N)c4ccccc4n3)CC1)C2 (stereo not drawn)
minimal effective concentration [1]: 0.088 µM | Activity [13]: Active | IC50 [4]: 6.54 µM | Activity [14]: 43% | Activity [15]: Toxic | Activity [16]: Non-Toxic | IC50 [11]: 0.71 µM | Activity [17]: Active
